Data from patent US20250127772A1, “SPECIFIC TETRADENTATE COPPER CHELATORS FOR THE TREATMENT OF WILSON'S DISEASE” (GUANGDONG UNIVERSITY OF TECHNOLOGY, priority 2023, published 2025).

Tested on: hepatic DEPs
Assay: Hepatic differentially expressed proteins (TMT LC-MS/MS) in treated TX mice
Assay type: in vivo, mouse
Protocol: In order to confirm the positive role of TDMQ20 in the treatment of TX mice, we performed proteomic experiments. Samples from three mice of each group were depicted in Table 1, The samples were treated with TMT (Tandem Mass Tag) and detected by quantitative LC-MS/MS, then the data were analyzed with ProteomeDiscoverer 2.4.1.15 (ThermoFisher Scientific). Confidence proteins were screened according to the criteria of Sequest program score greater than 0 and number of unique peptides greater than or equal to 1, and blank values were removed.
Other differentially expressed proteins (DEPs) were screened at p<0.05 in the WD mouse group compared to the control group. […] Results are reported in Table 3 and 4 for hepatic and serum proteins, respectively.

[1] = liver, 25 mg/kg/day, DEP down-regulated in WD
[2] = liver, 25 mg/kg/day, DEP up-regulated in WD
[3] = liver, 50 mg/kg/day, DEP down-regulated in WD
[4] = liver, 50 mg/kg/day, DEP up-regulated in WD

For `CN(C)CCNCCc1ccc2c(Cl)cc(Cl)c(N)c2n1` [TDMQ20], the “hepatic DEPs TDMQ20-H/control ratio” value (TDMQ20 50 mg/kg) was about 1, the “hepatic DEPs after treatment” value (TDMQ20 at 25 or 50 mg/kg) was “reversed to normal values” and the “TDMQ20-M/control fold change: 2-Oxo-4-hydroxy-4-caboxy-5-ureidoimidazoline decarboxylase (Urad)” value [1] was 0.93. For the same molecule, the “TDMQ20-M/control fold change: ATP-citrate synthase (Acly)” value [1] was 0.86, the “TDMQ20-M/control fold change: Alcohol deshydrogenase class-3 (Adh5)” value [1] was 0.89 and the “TDMQ20-M/control fold change: Aspartate-tRNA ligase, cytoplasmic (Dars1)” value [1] was 1.03. For the same molecule, the “TDMQ20-M/control fold change: Charged multivesicular body protein 7 (Chmp7)” value [1] was 1.04, the “TDMQ20-M/control fold change: Cytochrome P450 2C70 (Cyp2c70)” value [1] was 0.85 and the “TDMQ20-M/control fold change: Desmin (Des)” value [1] was 0.88. For the same molecule, the “TDMQ20-M/control fold change: Mesencephalic astrocyte-derived neurotrophic factor (Manf)” value [1] was 0.94, the “TDMQ20-M/control fold change: Nicotinamide/nicotinic acid mononucleotide adenylyltransferase 3 (Nmnat3)” value [1] was 0.97 and the “TDMQ20-M/control fold change: Progranulin (Gm)” value [1] was 1.05. The “TDMQ20-M/control fold change: Putative phospholipase B-like 2 (Plbd2)” value [1] was 0.98, the “TDMQ20-M/control fold change: Pyridoxine-5′-phosphate oxidase (Pnpo)” value [1] was 1.01 and the “TDMQ20-M/control fold change: Ribosome biogenesis protein BOP1 (Bop1)” value [1] was 1.08. For the same molecule, the “TDMQ20-M/control fold change: Triosephosphate isomerase (Tpi1)” value [1] was 0.85, the “TDMQ20-M/control fold change: 28 kDa heat- and acid-stable phosphoprotein (Pdap1)” value [2] was 1.15 and the “TDMQ20-M/control fold change: AN1-type zinc finger protein 6 (Zfand6)” value [2] was 1.09. For the same molecule, the “TDMQ20-M/control fold change: ATP synthase subunit a (Mtatp6)” value [2] was 1.04, the “TDMQ20-M/control fold change: Afadin (Afdn)” value [2] was 1.07 and the “TDMQ20-M/control fold change: Agmatinase, mitochondrial (Agmat)” value [2] was 1.15. The “TDMQ20-M/control fold change: Alanine glyoxylate aminotransferase (Agxt)” value [2] was 1.18, the “TDMQ20-M/control fold change: Alpha-1-antitrypsin-1-2 (Serpina1b)” value [2] was 1.09 and the “TDMQ20-M/control fold change: Cyclin-dependent kinase inhibitor 1B (Cdkn1b)” value [2] was 1.13. The “TDMQ20-M/control fold change: Epsin-1 (Epn1)” value [2] was 1.05, the “TDMQ20-M/control fold change: Exosome complex exonuclease RRP44 (Dis3)” value [2] was 1.16 and the “TDMQ20-M/control fold change: Histone H2A.V” value [2] was 1.14. For the same molecule, the “TDMQ20-M/control fold change: Histone H2B type 1-H (H2bc9)” value [2] was 1.05, the “TDMQ20-M/control fold change: Histone H4 (H4c16)” value [2] was 1.12 and the “TDMQ20-M/control fold change: Mitochondrial dicarboxylase carrier (Slc25a10)” value [2] was 1.10. For the same molecule, the “TDMQ20-M/control fold change: Mitochondrial outer membrane protein SLC25A46 (Slc25a46)” value [2] was 1.10, the “TDMQ20-M/control fold change: NADPH adrenodoxin oxidoreductase, mitochondrial (Fdxr)” value [2] was 1.10 and the “TDMQ20-M/control fold change: OCIA domain-containing protein 1 (Ociad1)” value [2] was 1.14. For the same molecule, the “TDMQ20-M/control fold change: PRKC apoptosis WT1 regulator protein (Pawr)” value [2] was 1.10, the “TDMQ20-M/control fold change: Peroxisomal membrane protein-2 (Pxmp2)” value [2] was 1.14 and the “TDMQ20-M/control fold change: Probable ATP-dependent RNA helicase DDX17 (Ddx17)” value [2] was 1.01. For the same molecule, the “TDMQ20-M/control fold change: Protein Hook homolog 1 (Hook1)” value [2] was 1.07, the “TDMQ20-M/control fold change: Protein LYRIC (Mtdh)” value [2] was 0.85 and the “TDMQ20-M/control fold change: Protein scribble homolog (Scrib)” value [2] was 1.07. For the same molecule, the “TDMQ20-M/control fold change: Protein-glutamine gamma-glutamyltransferase K (Tgm1)” value [2] was 0.90, the “TDMQ20-M/control fold change: Regucalcin (Rgn)” value [2] was 1.07 and the “TDMQ20-M/control fold change: Ribonuclease P protein subunit p30 (Rpp30)” value [2] was 1.20. The “TDMQ20-M/control fold change: SET nuclear proto-oncogene (Set)” value [2] was 0.95, the “TDMQ20-M/control fold change: Sideroflexin-5 (Sfxn5)” value [2] was 1.06 and the “TDMQ20-M/control fold change: Zinc transporter 10 (Slc30a10)” value [2] was 0.94. For the same molecule, the “TDMQ20-H/control fold change: 2-Oxo-4-hydroxy-4-caboxy-5-ureidoimidazoline decarboxylase (Urad)” value [3] was 0.96, the “TDMQ20-H/control fold change: ATP-citrate synthase (Acly)” value [3] was 0.97 and the “TDMQ20-H/control fold change: Alcohol deshydrogenase class-3 (Adh5)” value [3] was 0.86. For the same molecule, the “TDMQ20-H/control fold change: Aspartate-tRNA ligase, cytoplasmic (Dars1)” value [3] was 1.13, the “TDMQ20-H/control fold change: Charged multivesicular body protein 7 (Chmp7)” value [3] was 0.94 and the “TDMQ20-H/control fold change: Cytochrome P450 2C70 (Cyp2c70)” value [3] was 0.88. The “TDMQ20-H/control fold change: Desmin (Des)” value [3] was 0.88, the “TDMQ20-H/control fold change: Mesencephalic astrocyte-derived neurotrophic factor (Manf)” value [3] was 0.91 and the “TDMQ20-H/control fold change: Nicotinamide/nicotinic acid mononucleotide adenylyltransferase 3 (Nmnat3)” value [3] was 0.94. For the same molecule, the “TDMQ20-H/control fold change: Progranulin (Gm)” value [3] was 1.04, the “TDMQ20-H/control fold change: Putative phospholipase B-like 2 (Plbd2)” value [3] was 0.99 and the “TDMQ20-H/control fold change: Pyridoxine-5′-phosphate oxidase (Pnpo)” value [3] was 0.90. For the same molecule, the “TDMQ20-H/control fold change: Ribosome biogenesis protein BOP1 (Bop1)” value [3] was 0.97, the “TDMQ20-H/control fold change: Triosephosphate isomerase (Tpi1)” value [3] was 0.90 and the “TDMQ20-H/control fold change: 28 kDa heat- and acid-stable phosphoprotein (Pdap1)” value [4] was 1.10. For the same molecule, the “TDMQ20-H/control fold change: AN1-type zinc finger protein 6 (Zfand6)” value [4] was 0.91, the “TDMQ20-H/control fold change: ATP synthase subunit a (Mtatp6)” value [4] was 0.91 and the “TDMQ20-H/control fold change: Afadin (Afdn)” value [4] was 1.05. The “TDMQ20-H/control fold change: Agmatinase, mitochondrial (Agmat)” value [4] was 1.01, the “TDMQ20-H/control fold change: Alanine glyoxylate aminotransferase (Agxt)” value [4] was 1.03 and the “TDMQ20-H/control fold change: Alpha-1-antitrypsin-1-2 (Serpina1b)” value [4] was 1.04. The “TDMQ20-H/control fold change: Cyclin-dependent kinase inhibitor 1B (Cdkn1b)” value [4] was 1.10, the “TDMQ20-H/control fold change: Epsin-1 (Epn1)” value [4] was 0.93 and the “TDMQ20-H/control fold change: Exosome complex exonuclease RRP44 (Dis3)” value [4] was 1.00. The “TDMQ20-H/control fold change: Histone H2A.V” value [4] was 1.19, the “TDMQ20-H/control fold change: Histone H2B type 1-H (H2bc9)” value [4] was 1.07 and the “TDMQ20-H/control fold change: Histone H4 (H4c16)” value [4] was 1.15. The “TDMQ20-H/control fold change: Mitochondrial dicarboxylase carrier (Slc25a10)” value [4] was 1.00, the “TDMQ20-H/control fold change: Mitochondrial outer membrane protein SLC25A46 (Slc25a46)” value [4] was 1.11 and the “TDMQ20-H/control fold change: NADPH adrenodoxin oxidoreductase, mitochondrial (Fdxr)” value [4] was 1.04. For the same molecule, the “TDMQ20-H/control fold change: OCIA domain-containing protein 1 (Ociad1)” value [4] was 1.08, the “TDMQ20-H/control fold change: PRKC apoptosis WT1 regulator protein (Pawr)” value [4] was 1.18 and the “TDMQ20-H/control fold change: Peroxisomal membrane protein-2 (Pxmp2)” value [4] was 0.98. The “TDMQ20-H/control fold change: Probable ATP-dependent RNA helicase DDX17 (Ddx17)” value [4] was 1.11, the “TDMQ20-H/control fold change: Protein Hook homolog 1 (Hook1)” value [4] was 0.94 and the “TDMQ20-H/control fold change: Protein LYRIC (Mtdh)” value [4] was 1.06. For the same molecule, the “TDMQ20-H/control fold change: Protein scribble homolog (Scrib)” value [4] was 1.09, the “TDMQ20-H/control fold change: Protein-glutamine gamma-glutamyltransferase K (Tgm1)” value [4] was 0.84 and the “TDMQ20-H/control fold change: Regucalcin (Rgn)” value [4] was 0.91. For the same molecule, the “TDMQ20-H/control fold change: Ribonuclease P protein subunit p30 (Rpp30)” value [4] was 1.20, the “TDMQ20-H/control fold change: SET nuclear proto-oncogene (Set)” value [4] was 1.01 and the “TDMQ20-H/control fold change: Sideroflexin-5 (Sfxn5)” value [4] was 0.96. For the same molecule, the “TDMQ20-H/control fold change: Zinc transporter 10 (Slc30a10)” value [4] was 0.9.
